Several values for one entry are separate records, joined by “and”; a condition that tells them apart may be missing. Equal values may be shown once. Read-outs that look alike come from different tables or passages of the source. Each block holds one compound with its values, some of them ahead of it.
Assays:
[1] = cited from earlier work
clinical = details: human, plasma, oral, 300 mg, 300 mg twice daily; for AUC: ABC AUC; for Cmax: ABC Cmax; for Vd/F: ABC Vd/F (volume of distribution); for half-life: ABC half-life
[2] = 300 mg twice daily
[3] = Intracellular triphosphate; type: in vivo, human; details: median ratio, 4 h after dose vs predose; all subjects
[4] = cited from earlier work; remark: listed apart in the source
[5] = target: HIV-1 reverse transcriptase; details: cited from earlier work

AUC (clinical; mean (SD), <18 years (n = 15)): 7350 ng·h/mL
AUC (clinical; mean (SD), Total (n = 30)): 7480 ng·h/mL
AUC (clinical; mean (SD), ≥18 years (n = 15)): 7610 ng·h/mL
AUC (clinical; median, <18 years (n = 15)): 7010 ng·h/mL
AUC (clinical; median, Total (n = 30)): 6720 ng·h/mL
AUC (clinical; median, ≥18 years (n = 15)): 6590 ng·h/mL
Cmax (clinical; mean (SD), <18 years (n = 15)): 2790 ng/mL
Cmax (clinical; mean (SD), Total (n = 30)): 2860 ng/mL
Cmax (clinical; mean (SD), ≥18 years (n = 15)): 2940 ng/mL
Cmax (clinical; median, <18 years (n = 15)): 2580 ng/mL
Cmax (clinical; median, Total (n = 30)): 2620 ng/mL
Cmax (clinical; median, ≥18 years (n = 15)): 2740 ng/mL
Vd/F (clinical; mean (SD), <18 years (n = 15)): 82.9 L and 1.35 L/kg
Vd/F (clinical; mean (SD), Total (n = 30)): 77.8 L and 1.19 L/kg
Vd/F (clinical; mean (SD), ≥18 years (n = 15)): 72.8 L and 1.04 L/kg
Vd/F (clinical; median, <18 years (n = 15)): 67.1 L and 0.9 L/kg
Vd/F (clinical; median, Total (n = 30)): 71.5 L and 1.05 L/kg
Vd/F (clinical; median, ≥18 years (n = 15)): 73.5 L and 1.1 L/kg
half-life (clinical; mean (SD), <18 years (n = 15)): 1.23 h
half-life (clinical; mean (SD), Total (n = 30)): 1.19 h
half-life (clinical; mean (SD), ≥18 years (n = 15)): 1.14 h
half-life (clinical; median, <18 years (n = 15)): 1.22 h
half-life (clinical; median, Total (n = 30)): 1.23 h
half-life (clinical; median, ≥18 years (n = 15)): 1.34 h
ABC CL/F (apparent oral clearance) ([2]; mean (SD), <18 years (n = 15)): 47.47 (19.52) l/h
ABC CL/F adjusted for body surface area ([2]; mean (SD), <18 years (n = 15)): 481.60 (192.62) ml/min/m^2
ABC CL/F adjusted for weight ([2]; mean (SD), <18 years (n = 15)): 13.03 (5.31) ml/min/kg
ABC CL/F (apparent oral clearance) ([2]; mean (SD), Total (n = 30)): 45.44 (16.87) l/h
ABC CL/F adjusted for body surface area ([2]; mean (SD), Total (n = 30)): 437.77 (168.51) ml/min/m^2
ABC CL/F adjusted for weight ([2]; mean (SD), Total (n = 30)): 11.73 (4.84) ml/min/kg
ABC CL/F (apparent oral clearance) ([2]; mean (SD), ≥18 years (n = 15)): 43.40 (14.13) l/h
ABC CL/F adjusted for body surface area ([2]; mean (SD), ≥18 years (n = 15)): 393.93 (132.66) ml/min/m^2
ABC CL/F (apparent oral clearance) ([2]; median, <18 years (n = 15)): 42.80 L/h
ABC CL/F adjusted for body surface area ([2]; median, <18 years (n = 15)): 382.00 ml/min/m^2
ABC CL/F (apparent oral clearance) ([2]; median, Total (n = 30)): 44.70 L/h
ABC CL/F adjusted for body surface area ([2]; median, Total (n = 30)): 390.50 ml/min/m^2
ABC CL/F (apparent oral clearance) ([2]; median, ≥18 years (n = 15)): 45.50 L/h
ABC CL/F adjusted for body surface area ([2]; median, ≥18 years (n = 15)): 399.00 ml/min/m^2
SMILES: Nc1nc(NC2CC2)c2ncn([C@H]3C=C[C@@H](CO)C3)c2n1 [ABC, abacavir]
observed clearance seen in adults (reference value for hypothesis test on AUC) ([1]; adults, reference not printed at the place): 6000 ng·h/mL
abacavir steady-state AUC ([1]; older adults, 300 mg twice daily (~4 mg/kg)): 5000 to 6000 ng·h/mL
abacavir weight-adjusted apparent oral clearance ([1]; translated from 0.86 l/min for a 70-kg adult, ref 12 (McDowell et al.)): 12.3 mL/min/kg

C4/C0 ratio of intracellular TP concentrations [3]: 1.95
SMILES: Cc1cn([C@H]2C[C@H](N=[N+]=[N-])[C@@H](CO[P@](=O)(O)O[P@](=O)(O)OP(=O)(O)O)O2)c(=O)[nH]c1=O [Zidovudine-TP, zidovudine triphosphate]
intracellular zidovudine-TP concentrations ([4]; range seen in previous studies): 6.3-58 fmol/10^6 cells

SMILES: Nc1nc(=O)c2ncn([C@H]3C=C[C@@H](COP(=O)(O)OP(=O)(O)OP(=O)(O)O)C3)c2[nH]1 [Carbovir-TP, carbovir-triphosphate]
C4/C0 ratio of intracellular TP concentrations [3]: 1.89 and 1.9
intracellular carbovir-TP concentrations ([4]; range reported from previous studies): 4-290 fmol/10^6 cells
carbovir-TP reverse transcriptase Ki expressed as intracellular amount ([5]; equivalent of 21 nmol/l): ~ 10 fmol/10^6 cells
Ki ([5]; read-out: carbovir-TP reverse transcriptase Ki, ex vitro): 0.021 µM

C4/C0 ratio of intracellular TP concentrations [3]: 1.31 and 1.3
SMILES: Nc1ccn([C@@H]2CS[C@H](COP(=O)(O)OP(=O)(O)OP(=O)(O)O)O2)c(=O)n1 [Lamivudine-TP, lamivudine triphosphate]
intracellular lamivudine-TP average concentrations ([4]; range of averages in previous studies): 1.7-8.6 pmol/10^6 cells

— article PMC2767189 (Clinical Pharmacology and Therapeutics, 2008)
